Assay results: PubChem BioAssay AID720578 (The Scripps Research Institute Molecular Screening Center, 2013)
Activity calls are given as the source filed them. The rule behind the calls is not given here.

Biological target: Crimean-Congo hemorrhagic fever virus L protein viral ovarian tumor (vOTU) protease domain
Experiment: CCHFV vOTU protease inhibitor potency, dose response, biochemical, fluorescence, Pep-AMC substrate (AID 720578)
Conditions: recombinant CCHFV vOTU, Pep-AMC fluorescence cleavage

Structure (SMILES)	IC50
C[n+]1c2ccccc2nc2ccc(NCCO)cc21	5.96 µM
O=S(=O)(Nc1cc2nc3ccccc3nc2n1Cc1ccccc1)c1ccc(Cl)cc1	2.57 µM
O=C(NC1=C(NC2CCS(=O)(=O)C2)C(=O)c2ccccc2C1=O)c1ccccc1 (configuration not stated)	3.93 µM
O=[N+]([O-])c1ccccc1-c1ccc(C(=S)N2CCCC2)o1	inactive
O=C(NCCCO)c1ccc2nc(-c3ccco3)c(-c3ccco3)nc2c1	9.45 µM
CCN(CC)CCCC(C)n1c2nc(=O)[nH]c(=O)c-2nc2cc(Cl)ccc21 (configuration not stated)	2.5 µM
CN=c1sc2c(n1C)C(=O)c1ccccc1C2=O	1.78 µM
CC1OC2CC(=O)OC2C2=C1C(=O)c1c(O)cccc1C2=O (configuration not stated)	3.45 µM
O=C(c1ccccc1)c1coc2c1C(=O)c1ccccc1C2=O	6.61 µM
O=C(O)c1cccc(NC2=C(n3nnc4ccccc43)C(=O)c3ccccc3C2=O)c1	4.76 µM
Cc1ccc2c(c1C)-c1c(ccc(C)c1C)C(=O)C2=O	7.79 µM
O=C(O)CSc1cc(NS(=O)(=O)c2ccc(Cl)cc2)c2ccccc2c1O	5 µM
CCOCCCNC1=C(Cl)C(=O)c2ccccc2C1=O	inactive
Cn1c2ccccc2c2cc(/C=N/NC(=O)c3cc(O)ccc3O)ccc21	9.12 µM
CC1CCCC(NC(=O)COC(=O)c2ccc([N+](=O)[O-])s2)C1C (configuration not stated)	9.22 µM
COc1ccc(Cc2nccc3cc(OC)c(OC)cc23)cc1OC	inactive
O=C1C(=O)c2ccccc2-c2ccccc21	2.4 µM
CCOc1ccc(NC(=S)Nc2ccc3nsnc3c2)cc1	7.51 µM
O=C1C=C(NCc2ccccc2)c2ccccc2C1=O	6.23 µM
Cc1ccc(NC2=CC(=O)C(=O)c3ccccc32)cc1	7.14 µM
O=C1C(Nc2cccc(O)c2)=C(N2CCCCC2)C(=O)c2ccccc21	3.6 µM
CCOC(=O)/C=C(\C)Sc1cc(O)c2ccccc2c1O	1.57 µM
CC(=O)N(C1=C(Cl)C(=O)c2ccccc2C1=O)c1ccc(C(=O)O)cc1	2.74 µM
O=C(c1ccco1)[C@@H]1[C@@H]2C(=O)N(c3ccc(Br)cc3)C(=O)[C@@H]2C2c3ccccc3C=CN21 (some centres not stated)	5.26 µM
COc1ccc(CNC(=O)c2c(C)oc3c2C(=O)c2ccccc2C3=O)cc1	8.2 µM
CC(=O)c1ccc(NC(=S)Nc2cccc3cnccc23)cc1	6.84 µM

Structure (SMILES)	IC50
COC1=CC(=O)c2c(ccc3ncnc(N)c23)C1=O	0.396 µM
CN(C)S(=O)(=O)c1cccc(NC(=S)Nc2cccc3cnccc23)c1	inactive
Cc1cc(NC2=CC(=O)C(=O)c3ccccc32)no1	5.6 µM
O=C(COC(=O)c1ccc([N+](=O)[O-])s1)NCc1ccc(F)cc1	8.08 µM
CN(C)c1ncc(C2=C(Cl)C(=O)C(N3CCCC3)=C(Cl)C2=O)s1	inactive
O=C(O)c1ccc(NC2=C(n3nnc4ccccc43)C(=O)c3ccccc3C2=O)cc1	4.59 µM
O=C(O)c1ccc(NC2=C/C(=N/S(=O)(=O)c3cccs3)c3ccccc3C2=O)cc1	0.384 µM
S=C(Nc1ccc2nsnc2c1)N1CCCCCC1	inactive
CCn1nc(/C=C/c2ccccc2)nc2c(=O)n(C)c(=O)nc1-2	0.276 µM
O=S(=O)(Nc1cc(Sc2ncn[nH]2)c(O)c2ccccc12)c1ccccc1	0.708 µM
Cc1cnc(C2OCCO2)c2cccc(N)c12	2.56 µM
CCOC(=O)c1cc2c(=Cc3ccc(N(C)C)cc3)c3ccccc3n2[n+]1C	7.38 µM
CCc1cc[n+](C2=C([O-])c3ccccc3C(=O)/C2=N\S(=O)(=O)c2cccs2)cc1	4.4 µM
CCCCn1c(NS(=O)(=O)c2ccccc2)c(C(=O)OCC)c2nc3ccccc3nc21	> 115 µM (inactive)
O=C(/C=C/c1ccc(O)cc1)c1ccc(NC2=C(N3CCCCC3)C(=O)c3ccccc3C2=O)cc1	3.35 µM
COc1cc2c(cc1OC)-c1c(OC)c(OC)cc3c1[C@H](C2)N(C)CC3	7 µM
O=C(NC(=S)Nc1ccccc1N1CCCC1)c1ccc(F)cc1	inactive
Oc1ccccc1CNc1cccc2cccnc12	9.96 µM
Cc1nc2c(o1)C(=O)c1ccccc1C2=Nc1ccccc1	7.89 µM
Cc1ccccc1-c1cc2c(nn1)-c1ccccc1C2=O	0.457 µM
O=C1C(Nc2ccccc2)=C(N2CCCCC2)C(=O)c2ccccc21	4.54 µM
O=C(COC(=O)c1ccc([N+](=O)[O-])s1)Nc1ncc(C(F)(F)F)cc1Cl	8.84 µM
COc1ccc(/C=N/NC(=O)c2nn(-c3ccccc3)c(=O)c3c(N)scc23)cc1	8.43 µM
COc1cc(C=c2c3ccccc3n3c2cc(-c2ccccc2)[n+]3C)cc(OC)c1OC	6.76 µM
CCOC(=O)N1CCN(C2=C(NS(=O)(=O)c3ccc(C)cc3)C(=O)c3ccccc3C2=O)CC1	inactive
CCCCCCCCCCCCCCCC[n+]1ccccc1	inactive

Structure (SMILES)	IC50
Cc1cccc(NC(=O)c2sc3nc4c(c(-c5cccs5)c3c2N)CN(C)CC4)c1	inactive
O=C(O)c1cccc(NC2=C(N3CCOCC3)C(=O)c3ccccc3C2=O)c1	inactive
Cc1coc2c(O)cc3c(c12)OC1(N2CCCCC2)C(=O)NCCCC31 (configuration not stated)	inactive
CC(=O)N(/N=C1\Sc2ccccc2C1=O)c1ccccc1C	inactive
COc1cc(NC(C)CCCN)c2ncccc2c1 (configuration not stated)	inactive
O=C(O)CSc1cc(NS(=O)(=O)c2cccc([N+](=O)[O-])c2)c2ccccc2c1O	2.44 µM
O=C(O)c1cc(O)c2c(c1)[C@H]([C@H]1c3cc(C(=O)O)cc(O)c3C(=O)c3c(O[C@@H]4O[C@H](CO)[C@@H](O)[C@H](O)[C@H]4O)cccc31)c1cccc(OC3O[C@H](CO)[C@@H](O)[C@H](O)[C@H]3O)c1C2=O (some centres not stated)	6.47 µM
CCC(CNc1cc(OC)cc2cccnc12)NC1CCCCC1 (configuration not stated)	6.32 µM
COc1cccc2c1C(=O)c1c(O)c3c(c(O)c1C2=O)C[C@@](O)(C(=O)CO)C[C@@H]3O[C@H]1C[C@H](N)[C@H](O)[C@H](C)O1	inactive
COC(CNC(=O)c1ccc2c3c(onc13)-c1ccccc1C2=O)OC	3.5 µM
NS(=O)(=O)c1ccc(NC(=O)COC(=O)c2ccc([N+](=O)[O-])s2)cc1	8.31 µM
c1coc(-c2nnc(-c3ccco3)nn2)c1	9.33 µM
CCCCCCCCCCCCCCCC[n+]1cccc2ccccc21	inactive
COc1ccc(C(C[N+](=O)[O-])c2c(C)[nH]n(-c3ccccc3)c2=O)cc1 (configuration not stated)	inactive
COc1cc(NC(=O)COC(=O)c2ccc([N+](=O)[O-])s2)cc(OC)c1OC	6.6 µM
CC(=O)[C@H]1[C@@H]2C(=O)N(c3cccc(Cl)c3)C(=O)[C@@H]2[C@H]2c3ccccc3C=CN21	inactive
CCOC(=O)C1CCN(C(=O)c2c(C)oc3c2C(=O)c2ccccc2C3=O)CC1	inactive
Oc1c(N=Nc2nn[nH]n2)ccc2ccccc12	5.11 µM
O=S(=O)(c1ccc2nc(-c3ccco3)c(-c3ccco3)nc2c1)N1CCOCC1	inactive
CCCCCCCCCCCCN1[C@@H](CC(=O)O)c2cc(F)ccc2S1(=O)=O	inactive
COC1=C(N)C(=O)c2nc(C)ccc2C1=O	1.37 µM
CN(C)c1ccc2nc3ccc(=O)cc-3sc2c1	inactive
COC1=C(Br)C(=O)c2nc(C)ccc2C1=O	9.43 µM
CCCCn1c(NS(=O)(=O)c2ccccc2)c(S(=O)(=O)c2ccc(C)cc2)c2nc3ccccc3nc21	> 115 µM (inactive)
Cc1ccc(NC2=C(N3CCCCC3)C(=O)c3ccccc3C2=O)cc1	4.46 µM
